The values that follow come from patent US9113629B2, “4-amino-6-(4-substituted-phenyl)-picolinates and 6-amino-2-(4-substituted-phenyl)-pyrimidine-4-carboxylates and their use as herbicides” (DOW AGROSCIENCES LLC, priority 2013, dated 2015).

Assay [1] concerns MATSS: scented mayweed (Matricaria chamomilla), pineappleweed (Matricaria matricarioides). Nature of the assay: Post-emergent Test III, herbicidal activity in wheat and barley. It is filed as in vivo. The note with it: for pest or weed control at 35 g/ha / pest or weed control at 70 g/ha: Matricaria chamomilla, post-emergence, 504 h; for pest or weed control at 35 g/ha: 35 g ai/ha; for pest or weed control at 70 g/ha: 70 g ai/ha; for GR50 MATSS / GR80 MATSS: probit analysis. Summed up: (§1)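 Plants at the second to third true-leaf stage, grown in a greenhouse at about 18/17 °C with a 14 h photoperiod, were sprayed post-emergence at 187 L/ha with the high rate and ½× to 1/16× serial dilutions in an acetone/DMSO/crop-oil/surfactant carrier. Injury was rated visually at 21 d on a 0–100% scale, and GR20–GR90 were derived by probit analysis.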

Assay [2] relates to HORSS: barley, including spring and winter (Hordeum vulgare). The assay is described as above. Type of assay: in vivo. The note with it: for pest or weed control at 35 g/ha / pest or weed control at 70 g/ha: Hordeum vulgare, post-emergence, 504 h; for pest or weed control at 35 g/ha: 35 g ai/ha; for pest or weed control at 70 g/ha: 70 g ai/ha; for GR20 HORSS: probit analysis. The method, boiled down:
as §1

The test system of assay [3] is KCHSC: kochia (Kochia scoparia). Described as above. It is filed as in vivo. As to conditions: for pest or weed control at 35 g/ha / pest or weed control at 70 g/ha: Bassia scoparia, post-emergence, 504 h; for pest or weed control at 35 g/ha: 35 g ai/ha; for pest or weed control at 70 g/ha: 70 g ai/ha; for GR50 KCHSC / GR80 KCHSC: probit analysis. Summed up:
as §1

Assay [4] concerns TRZSS: wheat, including spring and winter (Triticum aestivum). The assay is described as above. Type of assay: in vivo. The note with it: for pest or weed control at 35 g/ha / pest or weed control at 70 g/ha: Triticum aestivum, post-emergence, 504 h; for pest or weed control at 35 g/ha: 35 g ai/ha; for pest or weed control at 70 g/ha: 70 g ai/ha; for GR20 TRZSS: probit analysis. Summed up:
as §1

Assay in assay [5]: as above
As to conditions: Lolium multiflorum, post-emergence, 504 h, read-out: Visual Growth Reduction (%) 21 Days After Application LOLSS; for pest or weed control at 35 g/ha: 35 g ai/ha; for pest or weed control at 70 g/ha: 70 g ai/ha. Type of assay: in vivo, Lolium multiflorum, Lolium rigidum. Summed up:
as §1

For assay [6], the system named is APESV: bentgrass (Apera spica-venti). Described as above. It is filed as in vivo. The note with it: for pest or weed control at 35 g/ha / pest or weed control at 70 g/ha: Apera spica-venti, post-emergence, 504 h, read-out: Visual Growth Reduction (%) 21 Days After Application APESV; for pest or weed control at 35 g/ha: 35 g ai/ha; for pest or weed control at 70 g/ha: 70 g ai/ha; for GR50 APESV / GR80 APESV: probit analysis. The method, boiled down:
as §1

In assay [7] the test system is SETVI: green foxtail (Setaria viridis). The description is as above. Type of assay: in vivo. As to conditions: Table 9, 21 d; for pest or weed control at 35 g/ha / pest or weed control at 70 g/ha: Setaria viridis, post-emergence, 504 h, post-emergent, read-out: Visual Growth Reduction (%) 21 Days After Application SETVI; for pest or weed control at 35 g/ha: 35 g ai/ha; for pest or weed control at 70 g/ha: 70 g ai/ha; for GR50 SETVI: dose for 50 percent growth reduction; for GR50 SETVI / GR80 SETVI: probit analysis; for GR80 SETVI: dose for 80 percent growth reduction. Summed up:
as §1

The subject of assay [8] is LOLSS: ryegrass including, Italian ryegrass (Lolium multiflorum), rigid ryegrass (Lolium rigidum), annual ryegrass (Lolium multiflorum subsp. Gaudini). The description is as above. Type of assay: in vivo. The note with it: probit analysis. The method, boiled down:
as §1

A further assay relates to LAMSS. Described as above. It is filed as in vivo. The method, boiled down: as §1
In assay [9] the test system is ALOMY: black-grass (Alopecurus myosuroides). The assay is described as above. It is filed as in vivo. Summed up:
as §1

Where [10] appears, read: 21 days after application, read-out: Visual Gorowth Reduction (%) 21 days After Application MATSS.
Setting [11] is: dose for 50 percent growth reduction, 21 days after application.
[12] abbreviates: dose for 80 percent growth reduction, 21 days after application.
Where [13] appears, read: 21 days after application, read-out: Visual Gorowth Reduction (%) 21 days After Application HORSS.
Setting [14] is: dose for 20 percent growth reduction (crop), 21 days after application.
Setting [15] is: 21 days after application, read-out: Visual Gorowth Reduction (%) 21 days After Application KCHSC.
Setting [16] is: 21 days after application, read-out: Visual Gorowth Reduction (%) 21 days After Application TRZSS.
The mark [17] stands for this setting: Table 9, post-emergent, 21 d, read-out: Visual Growth Reduction (%) 21 Days After Application HORSS.
The mark [18] stands for this setting: Table 9, dose for 20 percent growth reduction, 21 d.
[19] abbreviates: Table 9, dose for 50 percent growth reduction, 21 d.
Where [20] appears, read: Table 9, dose for 80 percent growth reduction, 21 d.
Where [21] appears, read: Table 9, post-emergent, 21 d, read-out: Visual Growth Reduction (%) 21 Days After Application KCHSC.
The mark [22] stands for this setting: Table 9, post-emergent, 21 d, read-out: Visual Growth Reduction (%) 21 Days After Application TRZSS.
The mark [23] stands for this setting: probit analysis, dose for growth reduction of 50 percent, 21 days after application.
[24] abbreviates: probit analysis, dose for growth reduction of 80 percent, 21 days after application.
[25] abbreviates: read-out: Visual Growth Reduction (%) 21 Days After Application MATSS.
The mark [26] stands for this setting: dose for growth reduction of 50 percent, 21 days after application.
Setting [27] is: dose for growth reduction of 80 percent, 21 days after application.
[28] abbreviates: read-out: Visual Growth Reduction (%) 21 Days After Application KCHSC.

Like-named read-outs stand apart in the source and are kept apart here. Bounds are passed on as bounds.

With `COC(=O)c1nc(-c2ccc(Br)c(F)c2)c(F)c(N)c1Cl` [Compound 49], the pest or weed control at 35 g/ha in assay [1] (setting [10]) lay within 60 to 74%; in assay [2] (setting [13]), 75 to 84%; in [3] (setting [15]), 85 to 94%; in assay [4] (setting [16]), 75 to 84%. For the same molecule, the pest or weed control at 70 g/ha in assay [1] (setting [10]) is 75 to 84%; in assay [2] (setting [13]), 85 to 94%; in [3] (setting [15]), 85 to 94%; in assay [4] (setting [16]) it was 85 to 94%. In [1] (setting [11]), the “GR50 MATSS” value was 15 g ai/ha. The “GR80 MATSS” value in assay [1] (setting [12]) was 93 g ai/ha. Moreover, in [2] (setting [14]), the “GR20 HORSS” value worked out at 1 g ai/ha. For the same molecule, the “GR50 KCHSC” value in [3] (setting [11]) came to 4 g ai/ha. In addition, the “GR80 KCHSC” value in assay [3] (setting [12]) is 18 g ai/ha. In addition, the “GR20 TRZSS” value in [4] (setting [14]) is reported as 1 g ai/ha.

For `COc1c(N)nc(-c2ccc(C(F)(F)F)c(F)c2F)nc1C(=O)O` [Compound 76], the pest or weed control at 35 g/ha was in the range of 30 to 44% in assay [5] (Table 9, post-emergent, 21 d); 60 to 74% in [2] (setting [17]); 75 to 84% in assay [6] (Table 9, post-emergent, 21 d); 45 to 59% in assay [7]; 0 to 29% in assay [3] (setting [21]); 75 to 84% in assay [4] (setting [22]). In addition, the pest or weed control at 70 g/ha in assay [5] (Table 9, post-emergent, 21 d) is 45 to 59%; in [2] (setting [17]), 60 to 74%; in assay [6] (Table 9, post-emergent, 21 d), 85 to 94%; in [7] it was 60 to 74%; in assay [3] (setting [21]) it was 45 to 59%; in assay [4] (setting [22]) it was 85 to 94%. Moreover, the “GR20 HORSS” value in [2] (setting [18]) was 6 g ai/ha. For the same molecule, the “GR50 APESV” value in [6] (setting [19]) stood at 27 g ai/ha. The “GR80 APESV” value in assay [6] (setting [20]) was 52 g ai/ha. Moreover, the “GR50 SETVI” value in assay [7] is recorded as 42 g ai/ha. For the same molecule, the “GR80 SETVI” value in assay [7] was 87 g ai/ha. Also, the “GR50 KCHSC” value in assay [3] (setting [19]) was 74 g ai/ha. The “GR80 KCHSC” value in assay [3] (setting [20]) is on record as 132 g ai/ha. Also, in [4] (setting [18]), the “GR20 TRZSS” value came out at 4 g ai/ha. Besides, the “GR50 LOLSS” value in assay [8] (setting [19]) is 53 g ai/ha. In [8] (setting [20]), the “GR80 LOLSS” value worked out at 133 g ai/ha.

As for `Nc1c(F)c(-c2ccc(C(F)(F)F)c(F)c2F)nc(C(=O)O)c1Cl` [Compound 167], the pest or weed control at 35 g/ha in the assay on LAMSS (post-emergence, 504 h, 35 g ai/ha, read-out: Visual Growth Reduction (%) 21 Days After Application LAMSS) is 95 to 100%; in assay [1] (setting [25]), 75 to 84%; in assay [5], 0 to 29%; in assay [9] (Alopecurus myosuroides, post-emergence, 504 h, 35 g ai/ha, read-out: Visual Growth Reduction (%) 21 Days After Application ALOMY), 30 to 44%; in [6] it was 75 to 84%; in assay [3] (setting [28]) it was 60 to 74%. Further, the pest or weed control at 70 g/ha in the assay with LAMSS (post-emergence, 504 h, 70 g ai/ha, read-out: Visual Growth Reduction (%) 21 Days After Application LAMSS) lay within 95 to 100%; in [1] (setting [25]), 85 to 94%; in [5] it was 0 to 29%; in assay [9] (Alopecurus myosuroides, post-emergence, 504 h, 70 g ai/ha, read-out: Visual Growth Reduction (%) 21 Days After Application ALOMY) it was 60 to 74%; in assay [6], 85 to 94%; in assay [3] (setting [28]), 75 to 84%. In addition, the “GR50 LAMSS” value in the assay with LAMSS (setting [23]) is reported as 1 g ai/ha. The “GR80 LAMSS” value in the assay on LAMSS (setting [24]) worked out at 1 g ai/ha. In addition, the “GR50 MATSS” value in assay [1] (setting [26]) came to 24 g ai/ha. Further, the “GR80 MATSS” value in assay [1] (setting [27]) was 48 g ai/ha. Further, the “GR50 ALOMY” value in assay [9] (setting [23]) is reported as 57 g ai/ha. In addition, the “GR80 ALOMY” value in [9] (setting [24]) was found to be 119 g ai/ha. In assay [6] (setting [26]), the “GR50 APESV” value is 20 g ai/ha. The “GR80 APESV” value in [6] (setting [27]) is recorded as 46 g ai/ha. The “GR50 KCHSC” value in assay [3] (setting [26]) was determined as 23 g ai/ha. Also, the “GR80 KCHSC” value in [3] (setting [27]) worked out at 52 g ai/ha. Besides, the “GR50 LOLSS” value in assay [8] (setting [26]) is more than 140 g ai/ha. Besides, the “GR80 LOLSS” value in [8] (setting [27]) was more than 140 g ai/ha.

As to `Nc1cc(-c2ccc(C(F)(F)F)c(F)c2F)nc(C(=O)O)c1Cl` [Compound 172, 4-amino-3-chloro-6-(2,3-difluoro-4-(trifluoromethyl)phenyl)picolinic acid], the pest or weed control at 35 g/ha in assay [5] (Table 9, post-emergent, 21 d) fell in the range of 0 to 29%; in assay [2] (setting [17]), 60 to 74%; in assay [6] (Table 9, post-emergent, 21 d), 30 to 44%; in assay [7], 60 to 74%; in assay [3] (setting [21]), 60 to 74%; in assay [4] (setting [22]) it was 75 to 84%. Also, the pest or weed control at 70 g/ha in [5] (Table 9, post-emergent, 21 d) is 0 to 29%; in assay [2] (setting [17]) it was 60 to 74%; in assay [6] (Table 9, post-emergent, 21 d) it was 60 to 74%; in [7], 75 to 84%; in assay [3] (setting [21]), 60 to 74%; in [4] (setting [22]), 75 to 84%. The “GR20 HORSS” value in [2] (setting [18]) is reported as 3 g ai/ha. The “GR50 APESV” value in assay [6] (setting [19]) is on record as 53 g ai/ha. Also, the “GR80 APESV” value in assay [6] (setting [20]) was 124 g ai/ha. For the same molecule, the “GR50 SETVI” value in assay [7] stood at 25 g ai/ha. Besides, the “GR80 SETVI” value in assay [7] was determined as 56 g ai/ha. Further, the “GR50 KCHSC” value in [3] (setting [19]) worked out at 38 g ai/ha. In addition, the “GR80 KCHSC” value in assay [3] (setting [20]) was 73 g ai/ha. Besides, in [4] (setting [18]), the “GR20 TRZSS” value is 1 g ai/ha. Moreover, the “GR50 LOLSS” value in assay [8] (setting [19]) was more than 140 g ai/ha. Moreover, in assay [8] (setting [20]), the “GR80 LOLSS” value is on record as more than 140 g ai/ha.
